{"source": "patent US20030175234A1", "about": "“Use of polyphenols to treat skin conditions” (priority 2002, published 2003)", "origin": "cited, not measured here", "key": {"[1]": {"system": "Ultraviolet-B (UV-B) light ray induced leukocyte infiltration", "conditions": "mouse skin"}, "[2]": {"system": "Ultraviolet-B (UV-B) light ray induced leukocyte infiltration", "conditions": "human skin"}}, "note": "Where two headings read alike, the source gives them in different places."}
{"smiles": "O=C(O[C@@H]1Cc2c(O)cc(O)cc2O[C@@H]1c1cc(O)c(O)c(O)c1)c1cc(O)c(O)c(O)c1", "note": "[epigallocatechin gallate]", "values": [{"measurement": "block of UV-B induced leukocyte infiltration", "setting": "[1]", "result": "can block"}, {"measurement": "block of UV-B induced leukocyte infiltration", "setting": "[2]", "result": "can block"}]}
